According to ChEMBL document CHEMBL1649369, “Novel 4-aryl-pyrido[1,2-c]pyrimidines with dual SSRI and 5-HT(1A) activity. part 3” (Eur J Med Chem, 2011):
Activity calls are given as the source filed them. The rule behind the calls is not given here.

What was measured:
[1] = target: Sodium-dependent serotonin transporter (Rattus norvegicus, UniProt P31652); experiment: Displacement of [3H]citalopram from SERT in rat cerebral cortex by liquid scintillation counting; assay type: tissue-based
[2] = target: T1, 5-hydroxytryptamine receptor 1A (Rattus norvegicus, UniProt P19327); experiment: Displacement of [3H]8-OH-DPAT from 5-HT1A receptor in rat hippocampus; assay type: tissue-based
T1 sequence (P19327 whole entry): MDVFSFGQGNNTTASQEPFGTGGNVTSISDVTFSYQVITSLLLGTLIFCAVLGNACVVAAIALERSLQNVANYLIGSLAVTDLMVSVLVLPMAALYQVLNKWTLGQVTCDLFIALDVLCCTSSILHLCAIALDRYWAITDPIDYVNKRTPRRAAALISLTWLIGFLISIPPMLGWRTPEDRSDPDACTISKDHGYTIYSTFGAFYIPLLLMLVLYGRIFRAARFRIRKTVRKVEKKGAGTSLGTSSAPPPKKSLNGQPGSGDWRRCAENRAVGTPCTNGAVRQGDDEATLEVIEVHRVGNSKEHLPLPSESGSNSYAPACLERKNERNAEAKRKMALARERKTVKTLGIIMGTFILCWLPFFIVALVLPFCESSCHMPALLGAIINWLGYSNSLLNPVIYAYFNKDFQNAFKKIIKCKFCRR

Mus musculus [3] = experiment: Effect on hypothermia in Swiss albino mouse assessed as change in rectal body temperature at 20 mg/kg, ip dosed 15 mins after 0.1 mg/kg, sc WAY 100635 challenge measured after 30 mins by inducible hypothermia test; assay type: functional, organism-based
Mus musculus [4] = experiment: Effect on hypothermia in Swiss albino mouse assessed as change in rectal body temperature at 20 mg/kg, ip after 60 mins by inducible hypothermia test; assay type: functional, organism-based; set-up: dose 20 mg/kg
Mus musculus [5] = experiment: Effect on hypothermia in Swiss albino mouse assessed as change in rectal body temperature at 20 mg/kg, ip dosed 15 mins after 0.1 mg/kg, sc WAY 100635 challenge measured after 60 mins by inducible hypothermia test; assay type: functional, organism-based
Mus musculus [6] = experiment: Antidepressant activity in Swiss albino mouse assessed as total immobility time at 10 mg/kg, ip administered 30 mins before test measured 6 mins test session after 2 mins habituation period by forced swimming test; assay type: functional, organism-based; set-up: dose 10 mg/kg
Mus musculus [7] = experiment: Effect on hypothermia in Swiss albino mouse assessed as change in rectal body temperature at 20 mg/kg, ip after 30 mins by inducible hypothermia test; assay type: functional, organism-based; set-up: dose 20 mg/kg
Mus musculus [8] = experiment: Effect on hypothermia in Swiss albino mouse assessed as change in rectal body temperature at 10 mg/kg, ip after 90 mins by inducible hypothermia test; assay type: functional, organism-based; set-up: dose 10 mg/kg
Mus musculus [9] = experiment: Effect on hypothermia in Swiss albino mouse assessed as change in rectal body temperature at 10 mg/kg, ip after 120 mins by inducible hypothermia test; assay type: functional, organism-based; set-up: dose 10 mg/kg
Mus musculus [10] = experiment: Effect on hypothermia in Swiss albino mouse assessed as change in rectal body temperature at 5 mg/kg, ip after 90 mins by inducible hypothermia test; assay type: functional, organism-based; set-up: dose 5 mg/kg
Mus musculus [11] = experiment: Effect on hypothermia in Swiss albino mouse assessed as change in rectal body temperature at 20 mg/kg, ip after 120 mins by inducible hypothermia test; assay type: functional, organism-based; set-up: dose 20 mg/kg
Mus musculus [12] = experiment: Effect on hypothermia in Swiss albino mouse assessed as change in rectal body temperature at 5 mg/kg, ip after 60 mins by inducible hypothermia test; assay type: functional, organism-based; set-up: dose 5 mg/kg
Mus musculus [13] = experiment: Effect on hypothermia in Swiss albino mouse assessed as change in rectal body temperature at 5 mg/kg, ip after 30 mins by inducible hypothermia test; assay type: functional, organism-based; set-up: dose 5 mg/kg
Mus musculus [14] = experiment: Effect on hypothermia in Swiss albino mouse assessed as change in rectal body temperature at 10 mg/kg, ip after 30 mins by inducible hypothermia test; assay type: functional, organism-based; set-up: dose 10 mg/kg
Mus musculus [15] = experiment: Effect on hypothermia in Swiss albino mouse assessed as change in rectal body temperature at 10 mg/kg, ip after 60 mins by inducible hypothermia test; assay type: functional, organism-based; set-up: dose 10 mg/kg
Mus musculus [16] = experiment: Effect on hypothermia in Swiss albino mouse assessed as change in rectal body temperature at 20 mg/kg, ip after 90 mins by inducible hypothermia test; assay type: functional, organism-based; set-up: dose 20 mg/kg
Mus musculus [17] = experiment: Antidepressant activity in Swiss albino mouse assessed as total immobility time at 20 mg/kg, ip administered 30 mins before test measured 6 mins test session after 2 mins habituation period by forced swimming test; assay type: functional, organism-based; set-up: dose 20 mg/kg
Mus musculus [18] = experiment: Effect on hypothermia in Swiss albino mouse assessed as change in rectal body temperature at 5 mg/kg, ip after 120 mins by inducible hypothermia test; assay type: functional, organism-based; set-up: dose 5 mg/kg
Mus musculus [19] = experiment: Effect on hypothermia in Swiss albino mouse assessed as change in rectal body temperature at 2.5 mg/kg, ip after 90 mins by inducible hypothermia test; assay type: functional, organism-based; set-up: dose 2.5 mg/kg
Mus musculus [20] = experiment: Effect on hypothermia in Swiss albino mouse assessed as change in rectal body temperature at 5 mg/kg, ip dosed 15 mins after 0.1 mg/kg, sc WAY 100635 challenge measured after 60 mins by inducible hypothermia test; assay type: functional, organism-based
Mus musculus [21] = experiment: Effect on hypothermia in Swiss albino mouse assessed as change in rectal body temperature at 2.5 mg/kg, ip after 60 mins by inducible hypothermia test; assay type: functional, organism-based; set-up: dose 2.5 mg/kg
Mus musculus [22] = experiment: Effect on hypothermia in Swiss albino mouse assessed as change in rectal body temperature at 2.5 mg/kg, ip after 120 mins by inducible hypothermia test; assay type: functional, organism-based; set-up: dose 2.5 mg/kg
Mus musculus [23] = experiment: Effect on hypothermia in Swiss albino mouse assessed as change in rectal body temperature at 2.5 mg/kg, ip after 30 mins by inducible hypothermia test; assay type: functional, organism-based; set-up: dose 2.5 mg/kg
Mus musculus [24] = experiment: Effect on hypothermia in Swiss albino mouse assessed as change in rectal body temperature at 5 mg/kg, ip dosed 15 mins after 0.1 mg/kg, sc WAY 100635 challenge measured after 30 mins by inducible hypothermia test; assay type: functional, organism-based

Chain of Sodium-dependent serotonin transporter (P31652 whole entry): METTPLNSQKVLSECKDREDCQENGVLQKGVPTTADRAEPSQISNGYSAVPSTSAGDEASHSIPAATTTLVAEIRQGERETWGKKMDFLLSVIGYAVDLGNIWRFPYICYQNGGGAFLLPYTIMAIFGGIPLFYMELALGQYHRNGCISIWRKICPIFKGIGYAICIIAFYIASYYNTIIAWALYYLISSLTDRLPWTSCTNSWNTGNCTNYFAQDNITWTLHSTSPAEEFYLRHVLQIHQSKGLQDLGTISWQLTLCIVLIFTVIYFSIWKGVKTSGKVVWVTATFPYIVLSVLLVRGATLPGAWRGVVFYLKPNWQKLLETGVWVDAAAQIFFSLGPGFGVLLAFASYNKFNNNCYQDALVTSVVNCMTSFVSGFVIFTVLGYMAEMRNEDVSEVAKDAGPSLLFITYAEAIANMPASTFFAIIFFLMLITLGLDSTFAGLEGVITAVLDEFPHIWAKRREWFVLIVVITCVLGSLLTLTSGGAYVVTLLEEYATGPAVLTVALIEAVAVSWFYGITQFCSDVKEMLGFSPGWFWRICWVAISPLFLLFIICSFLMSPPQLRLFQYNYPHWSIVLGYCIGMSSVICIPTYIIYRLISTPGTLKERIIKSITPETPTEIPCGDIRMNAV

| Compound | Ki [1] | Ki [2] | deltaT (Mus musculus [4]) | deltaT (Mus musculus [7]) | deltaT (Mus musculus [8]) | deltaT (Mus musculus [9]) | deltaT (Mus musculus [10]) | deltaT (Mus musculus [11]) | deltaT (Mus musculus [12]) | deltaT (Mus musculus [13]) | deltaT (Mus musculus [14]) | deltaT (Mus musculus [15]) | deltaT (Mus musculus [16]) | deltaT (Mus musculus [18]) | further results |
| --- | --- | --- | --- | --- | --- | --- | --- | --- | --- | --- | --- | --- | --- | --- | --- |
| Cc1ccc(-c2c3n(c(=O)n(CCCCN4CCC(c5c(C)[nH]c6ccccc56)CC4)c2=O)CCCC3)cc1 | 1800 nM | 279 nM | – | – | – | – | – | – | – | – | – | – | – | – | – |
| Cc1ccc(-c2c3n(c(=O)n(CCCCN4CCC(c5c[nH]c6ccccc56)CC4)c2=O)CCCC3)cc1 | 42.4 nM | 46.2 nM | -0.9 °C | -1.3 °C | -0.2 °C | -0.1 °C | -0.3 °C | -0.3 °C | -0.4 °C | -0.5 °C | -0.6 °C | -0.3 °C | -0.4 °C | -0.2 °C | deltaT (Mus musculus [3]): -0.4 °C; deltaT (Mus musculus [5]): -0.2 °C; Activity (Mus musculus [6]): inactive; Activity (Mus musculus [17]): inactive |
| Cc1[nH]c2ccccc2c1C1CCN(CCCCn2c(=O)c(-c3ccccc3Cl)c3n(c2=O)CCCC3)CC1 | 1300 nM | 393 nM | – | – | – | – | – | – | – | – | – | – | – | – | – |
| COc1ccccc1-c1c2n(c(=O)n(CCCCN3CCC(c4c[nH]c5ccccc45)CC3)c1=O)CCCC2 | 134 nM | 19.9 nM | -0.5 °C | -0.7 °C | -0.3 °C | -0.2 °C | -0.3 °C | 0 °C | -0.5 °C | -0.8 °C | -0.9 °C | -0.5 °C | -0.2 °C | -0.2 °C | deltaT (Mus musculus [3]): -0.3 °C; deltaT (Mus musculus [5]): -0.1 °C |
| O=c1c(-c2ccccc2F)c2n(c(=O)n1CCCCN1CCC(c3c[nH]c4ccccc34)CC1)CCCC2 | 68.4 nM | 41.3 nM | – | – | – | – | -0.5 °C | – | -0.8 °C | -1.3 °C | – | – | – | -0.3 °C | deltaT (Mus musculus [19]): -0.1 °C; deltaT (Mus musculus [20]): -0.1 °C; deltaT (Mus musculus [21]): -0.2 °C; deltaT (Mus musculus [22]): -0.1 °C; deltaT (Mus musculus [23]): -0.5 °C; deltaT (Mus musculus [24]): -0.2 °C |
| O=c1c(-c2ccccc2Cl)c2n(c(=O)n1CCCCN1CCC(c3c[nH]c4ccccc34)CC1)CCCC2 | 147 nM | 62.3 nM | -0.6 °C | -1 °C | -0.1 °C | 0 °C | -0.2 °C | -0.1 °C | -0.2 °C | -0.5 °C | -0.7 °C | -0.2 °C | -0.2 °C | -0.1 °C | – |
| COc1ccc(-c2c3n(c(=O)n(CCCCN4CCC(c5c(C)[nH]c6ccccc56)CC4)c2=O)CCCC3)cc1 | 184 nM | 153 nM | – | – | – | – | – | – | – | – | – | – | – | – | – |
| Cc1[nH]c2ccccc2c1C1CCN(CCCCn2c(=O)c(-c3ccc(F)cc3)c3n(c2=O)CCCC3)CC1 | 147 nM | 114 nM | – | – | – | – | – | – | – | – | – | – | – | – | – |
